Where no end group is shown, it is not given here.
Legend:
[1] = target: T1, NK-1 receptor (Homo sapiens, UniProt P25103); conditions: human tissues; cited from earlier work
T1 construct: pA2>6.0 both in murine and human tissues; host or cells: human tissues (not specified)

[2] = target: T2, NK-1 receptor (Rattus norvegicus, UniProt P14600); conditions: rat tissues; cited from earlier work
T2 construct: pA2>6.0 both in murine and human tissues; host or cells: rat ('murine') tissues (not specified)
T2 sequence (P14600 whole entry): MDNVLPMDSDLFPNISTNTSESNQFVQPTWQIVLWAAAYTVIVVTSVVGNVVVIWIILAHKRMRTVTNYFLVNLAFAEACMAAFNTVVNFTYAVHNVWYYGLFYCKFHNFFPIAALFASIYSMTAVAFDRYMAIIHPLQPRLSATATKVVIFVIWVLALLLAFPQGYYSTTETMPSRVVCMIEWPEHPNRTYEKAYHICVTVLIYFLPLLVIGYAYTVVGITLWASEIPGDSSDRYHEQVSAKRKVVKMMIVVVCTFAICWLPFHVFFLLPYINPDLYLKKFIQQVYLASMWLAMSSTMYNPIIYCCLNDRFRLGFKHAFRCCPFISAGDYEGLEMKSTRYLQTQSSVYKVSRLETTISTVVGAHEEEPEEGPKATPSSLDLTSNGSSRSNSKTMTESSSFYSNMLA

[3] = system: PC-3 human prostatic cancer cell lines; experiment: Vascular density quantification (CD31 immunohistochemistry) in orthotopic PC-3 prostate tumors in nude mice; assay type: in vivo, male athymic nude mices; conditions: compared to control groups (L-703,606 also vs SP treated mice); p<0.05; 1 ng up to 1 mg; three up to 180 days
Procedure: (§1) For this studies has been used male athymic nude mices (Harlan). The mices were housed in laminar flow cabinet under pathogenic free conditions and used at 4-5 weeks of age.
(§2) The PC-3 human prostatic cancer cell lines (ECACC) were mantained in Minimum essential medium (GIBCO BRL) For in vivo studies, tumor cells in exponential growth phase were harvested by a 120 seconds treatment with tripsyn in 0.02% EDTA. After that the cells were resuspended in saline solution. 20 μl (10^5 cells) of saline solution was inoculated in nude mice prostate. The tumors were taken at different times (three up to 180 days) for analysis.
(§3) Animals were divided in groups (10 animals each one) and treated with different solutions:
(§4) physiological solution, -Sustance P (1 ng up to 1 mg), -L-703,606 (1 ng up to 1 mg), −L-703,606+Leuprolide Acetate (using dosages reported in table 1 and 2).
(§5) The treatments were made at different time (one at day until one at week). For different periods of time (three days up to 180 days).
Frozen sections of tumors have been fixed in Acetone, acetone/chloroform, acetone.
The presence of new blood vessels has been highlighted using the Rat anti-Mouse CD31 antibody, a Goat anti-Rat POX as a secondary antibody and DAB as a chromogen substrate. For quantification of blood vessels an image analysis system was employed.

[4] = system: PC-3 human prostatic cancer cell lines; experiment: Tumoral mass weight of orthotopic PC-3 prostate tumors in nude mice; assay type: in vivo, male athymic nude mices; conditions: compared to either control groups or SP treated mice; p<0.05; from 3 up to 180 days
Procedure: as §1, §2, §3, §4, §5
The animals were maitained under observation for three up to 180 days. Autoptic examinations were performed in all animals and the tumoral mass weighed.

T1 sequence (P25103 whole entry): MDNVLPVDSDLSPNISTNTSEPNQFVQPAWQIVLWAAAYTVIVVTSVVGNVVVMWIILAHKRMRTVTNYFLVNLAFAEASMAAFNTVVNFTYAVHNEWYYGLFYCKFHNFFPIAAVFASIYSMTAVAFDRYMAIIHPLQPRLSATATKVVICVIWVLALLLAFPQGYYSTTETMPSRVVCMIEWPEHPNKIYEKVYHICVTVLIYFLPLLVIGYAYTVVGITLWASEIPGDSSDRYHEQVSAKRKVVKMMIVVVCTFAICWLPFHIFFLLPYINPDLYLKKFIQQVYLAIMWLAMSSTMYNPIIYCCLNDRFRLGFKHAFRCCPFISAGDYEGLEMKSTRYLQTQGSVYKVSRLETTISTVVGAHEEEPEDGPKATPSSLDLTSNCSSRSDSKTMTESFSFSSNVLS

Compound | pA2 human [1] | pA2 rat [2] | CD 31 values (blood vessels density) [3] | tumoral mass weight [4]
Cc1ccc(CC(=O)N(C)[C@H](Cc2ccc3ccccc3c2)C(=O)N[C@@H]2CCCC[C@@H]2NC(=O)c2c[nH]c3ccccc23)cc1 [MEN 11467] | >6.0 | >6.0 | – | –
CN(Cc1ccccc1)C(=O)[C@H](Cc1ccc2ccccc2c1)NC(=O)[C@@H]1C[C@@H](O)CN1C(=O)c1cn(C)c2ccccc12 [FK 888] | 9.1 | 6.0 | – | –
COc1ccccc1CC(=N)N1C[C@@H]2C(=O)CCC(c3ccccc3)(c3ccccc3)[C@@H]2C1 [RP 67580] | 7.2 | 8.2 | – | –
Ic1ccccc1CN[C@@H]1C2CCN(CC2)[C@@H]1C(c1ccccc1)c1ccccc1 (racemic) [L-703,606] | – | – | statistically significant reduction | statistically significant reduction
Cc1cc(C)cc(C(=O)N2CC[C@H](NCCc3ccccc3)C[C@H]2Cc2ccccc2)c1 [CGP 47899] | >6.0 | >6.0 | – | –
COc1ccc(-n2nnnc2C(F)(F)F)cc1CN[C@H]1CCCN[C@H]1c1ccccc1 [GR 205171] | >6.0 | >6.0 | – | –
COc1ccccc1CN[C@H]1C2CCN(CC2)[C@H]1C(c1ccccc1)c1ccccc1 [CP 96345] | 9.5 | 6.8 | – | –
COc1ccccc1CN[C@H]1CCCN[C@H]1c1ccccc1 [CP 99994] | 8.9 | 6.1 | – | –
CC(C)Oc1cccc(CC(=O)N2CCC[C@](CC[N+]34CCC(c5ccccc5)(CC3)CC4)(c3ccc(Cl)c(Cl)c3)C2)c1 [SR 140333] | 9.8 | 7.4 | – | –
substance P (RPKPQQFFGLM; ends and bridges not checked; UniProt P20366 58-68, looked up) [SP, substance P (SP), plays a role in angiogenesis stimulation] | – | – | statistically significant increase | –

— US6576638B1, “Use of substance P antagonists in the treatment of the adenocarcinomas” (Biopolis S.p.A., priority 1999, dated 2003)
